Measurements taken from ChEMBL document CHEMBL1141974, “Inclusion complexes of N-sulfamoyloxazolidinones with beta-cyclodextrin” (Bioorg Med Chem Lett, 2005).

Columns and labels:
[1] = Partition coefficient (logP); format: physicochemical; conditions: octanol/water
[2] = Partition coefficient (logP) (beta-cyclodextrin complex); format: physicochemical; conditions: octanol/water
[3] = Relative hydrophobicity enhancement value obtained via beta-cyclodextrin complexation; format: ADME

| logP [1] | logP [2] | delta Log P [3] | Structure (SMILES) |
| --- | --- | --- | --- |
| 0.56 | -0.22 | 0.78 | CN(c1ccccc1)S(=O)(=O)N1CCOC1=O |
| 0.65 | -0.2 | 0.85 | O=C1OCCN1S(=O)(=O)Nc1ccccc1 |
| 1.12 | 0.1 | 1.01 | Cc1ccc(NS(=O)(=O)N2CCOC2=O)cc1 |
| 0.77 | -0.17 | 0.94 | COc1ccc(NS(=O)(=O)N2CCOC2=O)cc1 |
| 0.55 | -0.35 | 0.9 | O=C1OCCN1S(=O)(=O)Nc1ccc([N+](=O)[O-])cc1 |
| 1.26 | 0.46 | 0.8 | O=C1OCCN1S(=O)(=O)Nc1ccc(Cl)cc1 |
